In patent EP0217101A1, “Substituted diphenyl ethers, process for their preparation and their use as herbicides” (HOECHST AKTIENGESELLSCHAFT, priority 1985, dated 1987):

Experiments:
Format in all cases: in vivo
Echinochloa crus-galli [1] = experiment: Weed control post-emergence (greenhouse pot test); design: key: 0: = ohne Wirkung bzw. Schaden; 1: = 0 - 20 % Wirkung bzw. Schaden; = 20 - 40 % Wirkung bzw. Schaden; 3: = 40 - 60 % Wirkung bzw. Schaden; 4: = 60 - 80 % Wirkung bzw. Schaden; 5: = 80 - 100 % Wirkung bzw. Schaden; settings: post-emergence (three-leaf stage), 2,5 kg a.i./ha, visual rating after ca. 3-4 weeks
From the text: (§1) Die Schädigung der Unkrautpflanzen bzw. die Kulturpflanzenverträglichkeit wurde gemäß einem Schlüssel bonitiert, in dem die Wirksamkeit durch Wertzahlen von 0 - 5 ausgedrückt ist. Dabei bedeutet:
(§2) Samen bzw. Rhizomstüeke von mono- und dikotylen Unkräutern wurden in Plasstiktöpfen (φ= 9 cm) in sandigem Lehmboden ausgelegt, mit Erde abgedeckt und im Gewächshaus unter guten Wachstumsbedingungen angezogen. Drei Wochen nach der Aussaat wurden die Versuchspflanzen im Dreiblattstadium behandelt. Die als Spritzpulver bzw. als Eτulsionskonzentrate formulierten erfindungsgemäßen Verbindungen wurden in verschiedenen Dosierungen mit einer Wasseraufwandmenge von umgerechnet 600-800 l/ha auf die grünen Pflanzenteile gesprüht und nach ca. 3-4 Wochen Standzeit der Versuchspflanzen im Gewächshaus unter optimalen Wachstumsbedingungen (Temperatur 23°C +/- 1°C, relative Luftfeuchte 60-80 %) die Wirkung der Präparate optisch im Vergleich zu unbehandelten Kontrollen bonitiert.

Stellaria media [2] = experiment: Weed control post-emergence (greenhouse pot test); design: key: 0: = ohne Wirkung bzw. Schaden; 1: = 0 - 20 % Wirkung bzw. Schaden; = 20 - 40 % Wirkung bzw. Schaden; 3: = 40 - 60 % Wirkung bzw. Schaden; 4: = 60 - 80 % Wirkung bzw. Schaden; 5: = 80 - 100 % Wirkung bzw. Schaden; settings: post-emergence (three-leaf stage), 2,5 kg a.i./ha, visual rating after ca. 3-4 weeks
From the text: as §1, §2

Sinapis arvensis [3] = experiment: Weed control post-emergence (greenhouse pot test); settings: post-emergence (three-leaf stage), 2,5 kg a.i./ha, visual rating after ca. 3-4 weeks
From the text: as §1, §2

Chrysanthemum segetum [4] = experiment: Weed control post-emergence (greenhouse pot test); settings: post-emergence (three-leaf stage), 2,5 kg a.i./ha, visual rating after ca. 3-4 weeks
From the text: as §1, §2

Avena sativa [5] = experiment: Weed control post-emergence (greenhouse pot test); settings: post-emergence (three-leaf stage), 2,5 kg a.i./ha, visual rating after ca. 3-4 weeks
From the text: as §1, §2

Echinochloa crus-galli [6] = experiment: Weed control pre-emergence (greenhouse pot test); settings: pre-emergence, 2,5 kg a.i./ha, visual rating after 3-4 weeks
From the text: as §1
(§3) Samen bzw. Rhizomstücke von mono- und dikotylen Unkrautpflanzen wurden in Plasstiktöpfen (0 = 9 cm) in sandiger Lehmerde ausgelegt und mit Erde abgedeckt. Die in Form von benetzbaren Pulvern oder Emulsionskonzentraten formulierten erfindungsgemäßen Verbindungen wurden dann als wäßrige Suspensionen bzw. Emulsionen mit einer Wasseraufwandmenge von umgerechnet 600-800 1/ha in unterschiedlichen Dosierungen auf die Oberfläche der Abdeckerde appliziert. Nach der Behandlung wurden die Töpfe im Gewächshaus aufgestellt und unter guten Wachstumsbedingungen für die Unkrautpflanzen gehalten (Temperatur 23 plus/minus 1 Grad Celsius, relative Luftfeuchte 60-80 %).
(§4) Die optische Bonitur der Pflanzen- bzw. Auflaufschäden erfolgte nach dem Auflaufen der Versuchspflanzen nach einer Versuchszeit von 3-4 Wochen im Vergleich zu unbehandelten Kontrollen.

Stellaria media [7] = experiment: Weed control pre-emergence (greenhouse pot test); settings: pre-emergence, 2,5 kg a.i./ha, visual rating after 3-4 weeks
From the text: as §1, §3, §4

Sinapis arvensis [8] = experiment: Weed control pre-emergence (greenhouse pot test); settings: pre-emergence, 2,5 kg a.i./ha, visual rating after 3-4 weeks
From the text: as §1, §3, §4

Chrysanthemum segetum [9] = experiment: Weed control pre-emergence (greenhouse pot test); settings: pre-emergence, 2,5 kg a.i./ha, visual rating after 3-4 weeks
From the text: as §1, §3, §4

Avena sativa [10] = experiment: Weed control pre-emergence (greenhouse pot test); settings: pre-emergence, 2,5 kg a.i./ha, visual rating after 3-4 weeks
From the text: as §1, §3, §4

Compound | Herbizide Wirkung im Nachauflauf ECG (Echinochloa crus-galli [1]) | Herbizide Wirkung im Nachauflauf STM (Stellaria media [2]) | Herbizide Wirkung im Nachauflauf SIA (Sinapis arvensis [3]) | Herbizide Wirkung im Nachauflauf CRS (Chrysanthemum segetum [4]) | Herbizide Wirkung im Nachauflauf AS (Avena sativa [5]) | Herbizide Wirkung im Vorauflauf ECG (Echinochloa crus-galli [6]) | Herbizide Wirkung im Vorauflauf STM (Stellaria media [7]) | Herbizide Wirkung im Vorauflauf SIA (Sinapis arvensis [8]) | Herbizide Wirkung im Vorauflauf CRS (Chrysanthemum segetum [9]) | Herbizide Wirkung im Vorauflauf AS (Avena sativa [10])
N#CCCSCCOC(OC(=O)c1cc(Oc2ccc(C(F)(F)F)cc2Cl)ccc1[N+](=O)[O-])C(Cl)(Cl)Cl (centres unmarked) [compound 9] | 2 (= 20 - 40 % Wirkung bzw. Schaden) | 0 | 5 (= 80 - 100 % Wirkung bzw. Schaden) | 4 (= 60 - 80 % Wirkung bzw. Schaden) | 1 (= 0 - 20 % Wirkung bzw. Schaden) | 4 (= 60 - 80 % Wirkung bzw. Schaden) | 3 (= 40 - 60 % Wirkung bzw. Schaden) | 4 (= 60 - 80 % Wirkung bzw. Schaden) | 5 (= 80 - 100 % Wirkung bzw. Schaden) | 4 (= 60 - 80 % Wirkung bzw. Schaden)
CCOC(=O)COC(OC(=O)c1cc(Oc2ccc(C(F)(F)F)cc2Cl)ccc1[N+](=O)[O-])C(Cl)(Cl)Cl (centres unmarked) [compound 22] | 5 (= 80 - 100 % Wirkung bzw. Schaden) | 3 (= 40 - 60 % Wirkung bzw. Schaden) | 5 (= 80 - 100 % Wirkung bzw. Schaden) | 5 (= 80 - 100 % Wirkung bzw. Schaden) | 5 (= 80 - 100 % Wirkung bzw. Schaden) | 5 (= 80 - 100 % Wirkung bzw. Schaden) | 2 (= 20 - 40 % Wirkung bzw. Schaden) | 5 (= 80 - 100 % Wirkung bzw. Schaden) | 5 (= 80 - 100 % Wirkung bzw. Schaden) | 4 (= 60 - 80 % Wirkung bzw. Schaden)
